In PubChem BioAssay (NCI):
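1) Cells in 96-well plates. 2) Compound, 48 h, 5 concentrations. 3) Linear interpolation between surrounding doses. 4) Unreached endpoint = highest concentration. GI50: concentration for 50% inhibition of growth. The concentration for full growth arrest is given as TGI.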

How the values were obtained:
Assay in all cases: NCI anticancer screen, dose series, 48 h
MDA-MB-231 breast = system: MDA-MB-231 breast
SK-MEL-2 melanoma = system: SK-MEL-2 melanoma
SK-MEL-28 melanoma = system: SK-MEL-28 melanoma
SK-MEL-5 melanoma = system: SK-MEL-5 melanoma
CCRF-CEM leukemia = system: CCRF-CEM leukemia
UACC-62 melanoma = system: UACC-62 melanoma
TK-10 renal = system: TK-10 renal
LOX IMVI melanoma = system: LOX IMVI melanoma
OVCAR-5 ovarian = system: OVCAR-5 ovarian
HL-60(TB) leukemia = system: HL-60(TB) leukemia
SN12C renal = system: SN12C renal
IGROV1 ovarian = system: IGROV1 ovarian
MCF7 breast = system: MCF7 breast
EKVX NSCLC = system: EKVX NSCLC
NCI-H522 lung = system: NCI-H522 lung
T-47D breast = system: T-47D breast
RXF 393 renal = system: RXF 393 renal
HCC-2998 colon = system: HCC-2998 colon
ACHN renal = system: ACHN renal
NCI-H460 lung = system: NCI-H460 lung
UO-31 renal = system: UO-31 renal
COLO 205 colon = system: COLO 205 colon
CAKI-1 renal = system: CAKI-1 renal
OVCAR-4 ovarian = system: OVCAR-4 ovarian
A498 renal = system: A498 renal
HOP-92 NSCLC = system: HOP-92 NSCLC
HT29 colon = system: HT29 colon
NCI/ADR-RES ovarian = system: NCI/ADR-RES ovarian
NCI-H226 lung = system: NCI-H226 lung
SK-OV-3 ovarian = system: SK-OV-3 ovarian
RPMI-8226 leukemia = system: RPMI-8226 leukemia
SR leukemia = system: SR leukemia
KM12 colon = system: KM12 colon
A549 NSCLC = system: A549 NSCLC
OVCAR-8 ovarian = system: OVCAR-8 ovarian
PC-3 prostate = system: PC-3 prostate
MALME-3M melanoma = system: MALME-3M melanoma
NCI-H23 lung = system: NCI-H23 lung
SNB-19 CNS = system: SNB-19 CNS
BT-549 breast = system: BT-549 breast
HCT-116 colon = system: HCT-116 colon
SW-620 colon = system: SW-620 colon
MOLT-4 leukemia = system: MOLT-4 leukemia
DU-145 prostate = system: DU-145 prostate
M14 melanoma = system: M14 melanoma
UACC-257 melanoma = system: UACC-257 melanoma
HOP-62 NSCLC = system: HOP-62 NSCLC
MDA-MB-435 = system: MDA-MB-435
HCT-15 colon = system: HCT-15 colon
OVCAR-3 ovarian = system: OVCAR-3 ovarian
SF-539 CNS = system: SF-539 CNS
786-0 renal = system: 786-0 renal
MDA-MB-468 breast = system: MDA-MB-468 breast
K-562 leukemia = system: K-562 leukemia
SF-295 CNS = system: SF-295 CNS
U251 CNS = system: U251 CNS
SNB-75 CNS = system: SNB-75 CNS
SF-268 CNS = system: SF-268 CNS

In the case of `Oc1ccc(Cl)c(Nc2nc(SCCN3CCOCC3)nc3c2cnn3CC(Cl)c2ccc(Br)cc2)c1` (stereo unspecified), the GI50 (MDA-MB-231 breast) is reported as 3.77 µM, the TGI (MDA-MB-231 breast) is reported as 17.3 µM and the GI50 (SK-MEL-2 melanoma) is reported as 10.1 µM. The TGI (SK-MEL-2 melanoma) was 36.9 µM, the GI50 (SK-MEL-28 melanoma) was 6.03 µM and the TGI (SK-MEL-28 melanoma) was > 100 µM. For the same compound, the GI50 (SK-MEL-5 melanoma) was 3.95 µM, the TGI (SK-MEL-5 melanoma) was 15.2 µM and the GI50 (CCRF-CEM leukemia) was 3.17 µM. For the same compound, the TGI (CCRF-CEM leukemia) was > 100 µM, the GI50 (UACC-62 melanoma) was 5.44 µM and the TGI (UACC-62 melanoma) was 24 µM. For the same compound, the GI50 (TK-10 renal) was 18.2 µM, the TGI (TK-10 renal) was 54.7 µM and the GI50 (LOX IMVI melanoma) was 2.97 µM. The TGI (LOX IMVI melanoma) was 10.9 µM, the GI50 (OVCAR-5 ovarian) was 7.08 µM and the TGI (OVCAR-5 ovarian) was 84.6 µM. The GI50 (HL-60(TB) leukemia) was 6.62 µM, the TGI (HL-60(TB) leukemia) was > 100 µM and the GI50 (SN12C renal) was 3.17 µM. For the same compound, the TGI (SN12C renal) was > 100 µM, the GI50 (IGROV1 ovarian) was 2.82 µM and the TGI (IGROV1 ovarian) was 10.3 µM. For the same compound, the GI50 (MCF7 breast) was 2.93 µM, the TGI (MCF7 breast) was > 100 µM and the GI50 (EKVX NSCLC) was 4.64 µM. The TGI (EKVX NSCLC) was > 100 µM, the GI50 (NCI-H522 lung) was 2.92 µM and the TGI (NCI-H522 lung) was > 100 µM. For the same compound, the GI50 (T-47D breast) was 2.88 µM, the TGI (T-47D breast) was > 100 µM and the GI50 (RXF 393 renal) was 1.11 µM. It also gave a TGI (RXF 393 renal) of 4.77 µM, a GI50 (HCC-2998 colon) of 4.1 µM and a TGI (HCC-2998 colon) of 25.4 µM. The GI50 (ACHN renal) was 3.62 µM, the TGI (ACHN renal) was > 100 µM and the GI50 (NCI-H460 lung) was 4.12 µM. The TGI (NCI-H460 lung) was > 100 µM, the GI50 (UO-31 renal) was 2.04 µM and the TGI (UO-31 renal) was > 100 µM. The GI50 (COLO 205 colon) was 18.6 µM, the TGI (COLO 205 colon) was 42.3 µM and the GI50 (CAKI-1 renal) was 6.63 µM. For the same compound, the TGI (CAKI-1 renal) was > 100 µM, the GI50 (OVCAR-4 ovarian) was 4.91 µM and the TGI (OVCAR-4 ovarian) was > 100 µM. The GI50 (A498 renal) was 12.1 µM, the TGI (A498 renal) was > 100 µM and the GI50 (HOP-92 NSCLC) was 2.57 µM. It also gave a TGI (HOP-92 NSCLC) of 9.21 µM, a GI50 (HT29 colon) of 6.22 µM and a TGI (HT29 colon) of 24.5 µM. The GI50 (NCI/ADR-RES ovarian) was 3.37 µM, the TGI (NCI/ADR-RES ovarian) was > 100 µM and the GI50 (NCI-H226 lung) was 5.06 µM. The TGI (NCI-H226 lung) was > 100 µM, the GI50 (SK-OV-3 ovarian) was 17.1 µM and the TGI (SK-OV-3 ovarian) was > 100 µM. For the same compound, the GI50 (RPMI-8226 leukemia) was 3.54 µM, the TGI (RPMI-8226 leukemia) was > 100 µM and the GI50 (SR leukemia) was 12.8 µM. For the same compound, the TGI (SR leukemia) was > 100 µM, the GI50 (KM12 colon) was 5.83 µM and the TGI (KM12 colon) was > 100 µM. It also gave a GI50 (A549 NSCLC) of 4.75 µM, a TGI (A549 NSCLC) of 54.1 µM and a GI50 (OVCAR-8 ovarian) of 3.89 µM. The TGI (OVCAR-8 ovarian) was > 100 µM, the GI50 (PC-3 prostate) was 3.08 µM and the TGI (PC-3 prostate) was > 100 µM. The GI50 (MALME-3M melanoma) was 3.7 µM, the TGI (MALME-3M melanoma) was 19.9 µM and the GI50 (NCI-H23 lung) was 8.67 µM. For the same compound, the TGI (NCI-H23 lung) was 47.9 µM, the GI50 (SNB-19 CNS) was 8.16 µM and the TGI (SNB-19 CNS) was > 100 µM. For the same compound, the GI50 (BT-549 breast) was 26.3 µM, the TGI (BT-549 breast) was > 100 µM and the GI50 (HCT-116 colon) was 3.83 µM. The TGI (HCT-116 colon) was > 100 µM, the GI50 (SW-620 colon) was 11.3 µM and the TGI (SW-620 colon) was > 100 µM. For the same compound, the GI50 (MOLT-4 leukemia) was 3.53 µM, the TGI (MOLT-4 leukemia) was > 100 µM and the GI50 (DU-145 prostate) was 6.33 µM. For the same compound, the TGI (DU-145 prostate) was > 100 µM, the GI50 (M14 melanoma) was 4.49 µM and the TGI (M14 melanoma) was > 100 µM. The GI50 (UACC-257 melanoma) was 13.7 µM, the TGI (UACC-257 melanoma) was > 100 µM and the GI50 (HOP-62 NSCLC) was 6.24 µM. For the same compound, the TGI (HOP-62 NSCLC) was > 100 µM, the GI50 (MDA-MB-435) was 4.64 µM and the TGI (MDA-MB-435) was > 100 µM. For the same compound, the GI50 (HCT-15 colon) was 3.27 µM, the TGI (HCT-15 colon) was > 100 µM and the GI50 (OVCAR-3 ovarian) was 5.5 µM. For the same compound, the TGI (OVCAR-3 ovarian) was > 100 µM, the GI50 (SF-539 CNS) was 4.43 µM and the TGI (SF-539 CNS) was > 100 µM. The GI50 (786-0 renal) was 15.4 µM, the TGI (786-0 renal) was 93.3 µM and the GI50 (MDA-MB-468 breast) was 2.2 µM. For the same compound, the TGI (MDA-MB-468 breast) was 6.28 µM, the GI50 (K-562 leukemia) was 0.378 µM and the TGI (K-562 leukemia) was > 100 µM. It also gave a GI50 (SF-295 CNS) of 3.1 µM, a TGI (SF-295 CNS) of 19.1 µM and a GI50 (U251 CNS) of 5.75 µM. The TGI (U251 CNS) was > 100 µM, the GI50 (SNB-75 CNS) was 1.39 µM and the TGI (SNB-75 CNS) was 6.13 µM. For the same compound, the GI50 (SF-268 CNS) was 4.34 µM and the TGI (SF-268 CNS) was > 100 µM.
